According to ChEMBL document CHEMBL4316596, “Antimicrobial Peptides with High Proteolytic Resistance for Combating Gram-Negative Bacteria” (J Med Chem, 2019):
The source made the active and inactive calls. No cut-off for these calls is given here.

What was measured:
[1] = test system: Salmonella typhimurium; assay: Bactericidal activity against Salmonella typhimurium C7731 incubated for 4 hrs followed by culture spread on agar plates and cultured overnight; assay type: functional, Salmonella enterica subsp. enterica serovar Typhimurium; conditions: Salmonella enterica, C7731, 4 h; read-out: MBC>99.9
[2] = test system: Escherichia coli; assay: Bactericidal activity against Escherichia coli ATCC 25922 incubated for 4 hrs followed by culture spread on agar plates and cultured overnight; assay type: functional; conditions: ATCC 25922, 4 h, read-out: MBC>99.9
[3] = test system: RAW264.7; assay: Cytotoxicity against mouse RAW264.7 cells assessed as cell death after 18 to 24 hrs by MTT assay; assay type: cell-based
[4] = test system: Klebsiella pneumoniae; assay: Antimicrobial activity against Klebsiella pneumoniae after 24 hrs by NCCLS-protocol based assay; assay type: functional
[5] = test system: Escherichia coli; assay: Bactericidal activity against Escherichia coli ATCC 25922 incubated for 4 hrs followed by culture spread on agar plates and cultured overnight in presence of 0.25 mg/ml trypsin; assay type: functional; conditions: ATCC 25922, 4 h, read-out: MBC>99.9
[6] = test system: Pseudomonas aeruginosa; assay: Antimicrobial activity against Pseudomonas aeruginosa CICC 21630 clinical isolates after 24 hrs by NCCLS-protocol based assay; assay type: functional; conditions: CICC 21630, 24 h
[7] = test system: Escherichia coli; assay: Antimicrobial activity against Escherichia coli K88 after 24 hrs by NCCLS-protocol based assay; assay type: functional; conditions: K88, 24 h
[8] = test system: Escherichia coli; assay: Bactericidal activity against Escherichia coli K88 incubated for 4 hrs followed by culture spread on agar plates and cultured overnight; assay type: functional; conditions: K88, 4 h, read-out: MBC>99.9
[9] = test system: Pseudomonas aeruginosa; assay: Bactericidal activity against Pseudomonas aeruginosa ATCC 27853 incubated for 4 hrs followed by culture spread on agar plates and cultured overnight; assay type: functional; conditions: ATCC 27853, 4 h, read-out: MBC>99.9
[10] = test system: Escherichia coli; assay: Bactericidal activity against Escherichia coli ATCC 25922 incubated for 4 hrs followed by culture spread on agar plates and cultured overnight in presence of 0.125 mg/ml chymotrypsin; assay type: functional; conditions: ATCC 25922, 4 h, read-out: MBC>99.9
[11] = test system: Escherichia coli; assay: Bactericidal activity against Escherichia coli ATCC 25922 incubated for 4 hrs followed by culture spread on agar plates and cultured overnight in presence of 0.25 mg/ml chymotrypsin; assay type: functional; conditions: ATCC 25922, 4 h, read-out: MBC>99.9
[12] = test system: Escherichia coli; assay: Antibacterial activity against Escherichia coli ATCC 25922 infected in ICR mouse assessed as log reduction in bacterial cells in spleen at 5 mg/kg, ip administered at 5 mg/kg, ip dosed at 0.5, 2, 4 and 8 hrs post-infection; assay type: functional
[13] = Selectivity ratio of IC50 for mouse RAW264.7 cells to geometric mean of the peptide MBC for bacteria
[14] = test system: Escherichia coli; assay: Bactericidal activity against Escherichia coli ATCC 25922 incubated for 4 hrs followed by culture spread on agar plates and cultured overnight in presence of 50% serum albumin; assay type: functional; conditions: ATCC 25922, 4 h, read-out: MBC>99.9
[15] = test system: Escherichia coli; assay: Bactericidal activity against Escherichia coli ATCC 25922 incubated for 4 hrs followed by culture spread on agar plates and cultured overnight in presence of 4 mg/ml pepsin; assay type: functional, organism-based
[16] = test system: Pseudomonas aeruginosa; assay: Bactericidal activity against Pseudomonas aeruginosa 26305 clinical isolates incubated for 4 hrs followed by culture spread on agar plates and cultured overnight; assay type: functional; conditions: Pseudomonas aeruginosa, 26305, 4 h; read-out: MBC>99.9
[17] = Cytotoxicity against IPECJ2 cells assessed as cell death after 18 to 24 hrs by MTT assay; assay type: cell-based; conditions: Sus scrofa, IPEC-J2
[18] = test system: Pseudomonas aeruginosa; assay: Antimicrobial activity against Pseudomonas aeruginosa 26305 clinical isolates after 24 hrs by NCCLS-protocol based assay; assay type: functional; conditions: Pseudomonas aeruginosa, 26305, 24 h
[19] = test system: Escherichia coli; assay: Bactericidal activity against Escherichia coli ATCC 25922 incubated for 4 hrs followed by culture spread on agar plates and cultured overnight in presence of 0.125 mg/ml trypsin; assay type: functional; conditions: ATCC 25922, 4 h, read-out: MBC>99.9
[20] = test system: Escherichia coli; assay: Antibacterial activity against Escherichia coli ATCC 25922 infected in ICR mouse assessed as log reduction in bacterial cells in peritoneal cavity at 5 mg/kg, ip administered at 5 mg/kg, ip dosed at 0.5, 2, 4 and 8 hrs post-infection; assay type: functional
[21] = test system: Escherichia coli; assay: Antibacterial activity against Escherichia coli ATCC 25922 infected in ICR mouse assessed as log reduction in bacterial cells in liver at 5 mg/kg, ip administered at 5 mg/kg, ip dosed at 0.5, 2, 4 and 8 hrs post-infection; assay type: functional
[22] = test system: Salmonella typhimurium; assay: Antimicrobial activity against Salmonella typhimurium ATCC 14028 after 24 hrs by NCCLS-protocol based assay; assay type: functional, Salmonella enterica subsp. enterica serovar Typhimurium; conditions: Salmonella enterica, ATCC 14028, 24 h
[23] = test system: Escherichia coli; assay: Antimicrobial activity against Escherichia coli ATCC 25922 after 24 hrs by NCCLS-protocol based assay; assay type: functional; conditions: ATCC 25922, 24 h
[24] = test system: Escherichia coli; assay: Bactericidal activity against Escherichia coli 078 incubated for 4 hrs followed by culture spread on agar plates and cultured overnight; assay type: functional; conditions: Escherichia coli, 078, 4 h; read-out: MBC>99.9
[25] = test system: Pseudomonas aeruginosa; assay: Bactericidal activity against Pseudomonas aeruginosa CICC 21630 clinical isolates incubated for 4 hrs followed by culture spread on agar plates and cultured overnight; assay type: functional; conditions: CICC 21630, 4 h, read-out: MBC>99.9
[26] = Antimicrobial activity against Salmonella pullorum C7913 after 24 hrs by NCCLS-protocol based assay; assay type: functional, Salmonella enterica subsp. enterica serovar Pullorum; conditions: Salmonella enterica, C7913, 24 h
[27] = test system: Erythrocyte; assay: Hemolytic activity against human RBC after 1 hr; assay type: ADME, cell-based
[28] = test system: Acinetobacter baumannii; assay: Antimicrobial activity against Acinetobacter baumannii after 24 hrs by NCCLS-protocol based assay; assay type: functional
[29] = test system: Escherichia coli; assay: Bactericidal activity against Escherichia coli ATCC 25922 incubated for 4 hrs followed by culture spread on agar plates and cultured overnight in presence of FeCl3; assay type: functional; conditions: ATCC 25922, 4 h, read-out: MBC>99.9
[30] = test system: Escherichia coli; assay: Bactericidal activity against Escherichia coli ATCC 25922 incubated for 4 hrs followed by culture spread on agar plates and cultured overnight in presence of CaCl2; assay type: functional; conditions: ATCC 25922, 4 h, read-out: MBC>99.9
[31] = test system: Pseudomonas aeruginosa; assay: Antimicrobial activity against Pseudomonas aeruginosa 25349 clinical isolates after 24 hrs by NCCLS-protocol based assay; assay type: functional; conditions: Pseudomonas aeruginosa, 25349, 24 h
[32] = test system: Pseudomonas aeruginosa; assay: Antimicrobial activity against Pseudomonas aeruginosa ATCC 27853 at sub-MBC after 60 passages; assay type: functional, organism-based
[33] = test system: Escherichia coli; assay: Bactericidal activity against Escherichia coli UB1005 incubated for 4 hrs followed by culture spread on agar plates and cultured overnight; assay type: functional; conditions: UB1005, 4 h, read-out: MBC>99.9
[34] = test system: Escherichia coli; assay: Bactericidal activity against Escherichia coli ATCC 25922 incubated for 4 hrs followed by culture spread on agar plates and cultured overnight in presence of NH4Cl; assay type: functional; conditions: ATCC 25922, 4 h, read-out: MBC>99.9
[35] = test system: Escherichia coli; assay: Bactericidal activity against Escherichia coli ATCC 25922 incubated for 4 hrs followed by culture spread on agar plates and cultured overnight in presence of NaCl; assay type: functional; conditions: ATCC 25922, 4 h, read-out: MBC>99.9
[36] = test system: Pseudomonas aeruginosa; assay: Bactericidal activity against Pseudomonas aeruginosa PAO1 incubated for 4 hrs followed by culture spread on agar plates and cultured overnight; assay type: functional; conditions: PAO1, 4 h, read-out: MBC>99.9
[37] = test system: Escherichia coli; assay: Bactericidal activity against Escherichia coli ATCC 25922 incubated for 4 hrs followed by culture spread on agar plates and cultured overnight in presence of 4 mg/ml trypsin; assay type: functional; conditions: ATCC 25922, 4 h, read-out: MBC>99.9
[38] = test system: Escherichia coli; assay: Bactericidal activity against Escherichia coli ATCC 25922 incubated for 4 hrs followed by culture spread on agar plates and cultured overnight in presence of 2 mg/ml trypsin; assay type: functional; conditions: ATCC 25922, 4 h, read-out: MBC>99.9
[39] = test system: Klebsiella pneumoniae; assay: Bactericidal activity against Klebsiella pneumoniae incubated for 4 hrs followed by culture spread on agar plates and cultured overnight; assay type: functional; conditions: read-out: MBC>99.9

Substance: H-LKPLLKPLLKPLLKPLLKPLLKPLLKPL-NH2
- MBC [1]: 2 µM
- MBC [2]: 1 µM
- IC50 [3]: 1.56 µM
- MIC95 [4]: 1 µM
- MBC [5]: 1 µM
- MIC95 [6]: 2 µM
- MIC95 [7]: 0.5 µM
- MBC [8]: 1 µM
- MBC [9]: 2 µM
- MBC [10]: 1 µM
- MBC [11]: 1 µM
- log(activity) [12]: 1
- Ratio [13]: 0.58
- MBC [14]: 64 µM
- Activity [15]: inactive
- MBC [16]: 16 µM
- IC50 [17]: 24.4 µM
- MIC95 [18]: 4 µM
- MBC [19]: 1 µM
- log(activity) [20]: 1
- log(activity) [21]: 1
- MIC95 [22]: 1 µM
- MIC95 [23]: 0.5 µM
- MBC [24]: 2 µM
- MBC [25]: 8 µM
- MIC95 [26]: 2 µM
- HC10 [27]: > 128 µM
- MIC95 [28]: 1 µM
- MBC [29]: 2 µM
- MBC [30]: > 128 µM
- MIC95 [31]: 8 µM
- Activity [32]: Active
- MBC [33]: 2 µM
- MBC [34]: 1 µM
- MBC [35]: 8 µM
- MBC [36]: 1 µM
- MBC [37]: 1 µM
- MBC [38]: 1 µM
- MBC [39]: 2 µM

Substance: H-LRPLLRPLLRPLLRPLLRPLLRPLLRPL-NH2
- MBC [1]: 2 µM
- MBC [2]: 2 µM
- IC50 [3]: 2.29 µM
- MIC95 [4]: 2 µM
- MBC [5]: 2 µM
- MIC95 [6]: 2 µM
- MIC95 [7]: 1 µM
- MBC [8]: 1 µM
- MBC [9]: 4 µM
- MBC [10]: 2 µM
- MBC [11]: 2 µM
- log(activity) [12]: 1
- Ratio [13]: 0.89
- MBC [14]: 16 µM
- Activity [15]: inactive
- MBC [16]: 8 µM
- IC50 [17]: 10.7 µM
- MIC95 [18]: 2 µM
- MBC [19]: 2 µM
- log(activity) [20]: 1
- log(activity) [21]: 1
- MIC95 [22]: 1 µM
- MIC95 [23]: 1 µM
- MBC [24]: 1 µM
- MBC [25]: 4 µM
- MIC95 [26]: 1 µM
- HC10 [27]: 64 µM
- MIC95 [28]: 1 µM
- MBC [29]: 2 µM
- MBC [30]: 16 µM
- MIC95 [31]: 4 µM
- Activity [32]: Active
- MBC [33]: 2 µM
- MBC [34]: 2 µM
- MBC [35]: 4 µM
- MBC [36]: 2 µM
- MBC [37]: 2 µM
- MBC [38]: 2 µM
- MBC [39]: 4 µM
